Patent US20250179079A1, “HEXAHYDROPYRIDO[4,3-B]INDOLYL KETONE DERIVATIVES USEFUL AS CGAS MODULATORS” (Ventus Therapeutics U.S., Inc., priority 2022, published 2025)
Read-outs that look alike come from different tables or passages of the source.

Biological target: h-cGAS (Homo sapiens (Human), UniProt Q8N884)
Assay: hcGAS Kinase-Glo assay
Assay type: biochemical
[1] = Table C, raw data in parentheses, read-out: hcGAS IC50
[2] = Table C, IC50 range designation, read-out: hcGAS IC50

Sequence of h-cGAS (Q8N884 whole entry): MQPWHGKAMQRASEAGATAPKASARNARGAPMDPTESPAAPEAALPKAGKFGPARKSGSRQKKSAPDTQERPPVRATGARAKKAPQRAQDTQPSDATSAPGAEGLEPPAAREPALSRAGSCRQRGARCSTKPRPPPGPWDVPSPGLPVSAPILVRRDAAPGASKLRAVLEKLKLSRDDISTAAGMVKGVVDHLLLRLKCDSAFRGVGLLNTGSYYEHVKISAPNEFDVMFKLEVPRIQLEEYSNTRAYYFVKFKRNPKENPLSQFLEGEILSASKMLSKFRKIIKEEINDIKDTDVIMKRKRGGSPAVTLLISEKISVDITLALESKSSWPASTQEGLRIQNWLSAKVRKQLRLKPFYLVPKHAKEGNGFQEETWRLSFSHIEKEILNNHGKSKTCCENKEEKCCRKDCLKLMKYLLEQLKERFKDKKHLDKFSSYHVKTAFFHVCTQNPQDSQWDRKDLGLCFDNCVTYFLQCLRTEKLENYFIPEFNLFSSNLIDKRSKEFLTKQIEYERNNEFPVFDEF

SMILES | IC50 [1] [nM] | IC50 (read-out: hcGAS activity) [nM] | IC50 [2] [nM]
CC1c2c([nH]c3c(Cl)c(Cl)ccc23)CCN1C(=O)c1ncc(N2CCOCC2)cn1 (racemic) [Rac-44, (6,7-dichloro-1-methyl-1,3,4,5-tetrahydro-2H-pyrido[4,3-b]indol-2-yl)(5-morpholinopyrimidin-2-yl)methanone] | 68.5 | < 100 | 
CNc1cnc(C(=O)N2CCc3[nH]c4c(Cl)c(Cl)ccc4c3C2C)nc1 (racemic) [Rac-46, (6,7-dichloro-1-methyl-1,3,4,5-tetrahydro-2H-pyrido[4,3-b]indol-2-yl)(5-(methylamino)pyrimidin-2-yl)methanone] | 51.4 | < 100 | 
CC1c2c([nH]c3c(Cl)c(Cl)ccc23)CCN1C(=O)c1ncc(N(C)CCN(C)C)cn1 (racemic) [Rac-47, (6,7-dichloro-1-methyl-1,3,4,5-tetrahydro-2H-pyrido[4,3-b]indol-2-yl)(5-((2-(dimethylamino)ethyl)(methyl)amino)pyrimidin-2-yl)methanone] | 50.1 |  | 
CC1c2c([nH]c3c(Cl)c(Cl)ccc23)CCN1C(=O)c1ncc(N2CCN(C)CC2)cn1 (racemic) [Rac-48, (6,7-dichloro-1-methyl-1,3,4,5-tetrahydro-2H-pyrido[4,3-b]indol-2-yl)(5-(4-methylpiperazin-1-yl)pyrimidin-2-yl)methanone] | 52 |  | 
CC1c2c([nH]c3c(Cl)c(Cl)ccc23)CCN1C(=O)c1ncc(N2CCN(C3COC3)CC2)cn1 (racemic) [Rac-49, (6,7-dichloro-1-methyl-1,3,4,5-tetrahydro-2H-pyrido[4,3-b]indol-2-yl)(5-(4-(oxetan-3-yl)piperazin-1-yl)pyrimidin-2-yl)methanone] | 102 |  | 
CC1c2c([nH]c3c(Cl)c(Cl)ccc23)CCN1C(=O)c1ncc(N2CCN3CC(F)(F)C[C@H]3C2)cn1 (mixture of isomers) [Rac-50, (6,7-dichloro-1-methyl-1,3,4,5-tetrahydro-2H-pyrido[4,3-b]indol-2-yl)(5-((S)-7,7-difluorohexahydropyrrolo[1,2-a]pyrazin-2(1H)-yl)pyrimidin-2-yl)methanone] | 89.5 |  | 
CC1c2c([nH]c3c(Cl)c(Cl)ccc23)CCN1C(=O)CN (racemic) [Rac-51, 2-amino-1-(6,7-dichloro-1-methyl-1,3,4,5-tetrahydro-2H-pyrido[4,3-b]indol-2-yl)ethan-1-one] | 37.7 |  | 
COCCOc1ccnc(C(=O)N2CCc3[nH]c4c(Cl)c(Cl)ccc4c3C2C)n1 (racemic) [Rac-67, (6,7-dichloro-1-methyl-1,3,4,5-tetrahydro-2H-pyrido[4,3-b]indol-2-yl)(4-(2-methoxyethoxy)pyrimidin-2-yl)methanone] | 251 | < 100 | 
COc1ccnc(C(=O)N2CCc3[nH]c4c(Cl)c(Cl)ccc4c3C2C)n1 (racemic) [Rac-68, (6,7-dichloro-1-methyl-1,3,4,5-tetrahydro-2H-pyrido[4,3-b]indol-2-yl)(4-methoxypyrimidin-2-yl)methanone] | 94.5 | < 100 | 
CC1c2c([nH]c3c(Cl)c(Cl)ccc23)CCN1C(=O)c1nccc(OCCO)n1 (racemic) [Rac-70, (6,7-dichloro-1-methyl-1,3,4,5-tetrahydro-2H-pyrido[4,3-b]indol-2-yl)(4-(2-hydroxyethoxy)pyrimidin-2-yl)methanone] | 78.7 | < 100 | 
COc1cnc(C(=O)N2CCc3[nH]c4c(Cl)c(Cl)ccc4c3C2C)nc1OC (racemic) [Rac-83, (6,7-dichloro-1-methyl-1,3,4,5-tetrahydro-2H-pyrido[4,3-b]indol-2-yl)(4,5-dimethoxypyrimidin-2-yl)methanone] | 206 |  | 
CC1c2c([nH]c3c(Cl)c(Cl)ccc23)CCN1C(=O)c1nccc(OCCN(C)C)n1 (racemic) [Rac-88, (6,7-dichloro-1-methyl-1,3,4,5-tetrahydro-2H-pyrido[4,3-b]indol-2-yl)(4-(2-(dimethylamino)ethoxy)pyrimidin-2-yl)methanone] | 110 |  | 
CC1c2c([nH]c3c(Cl)c(Cl)ccc23)CCN1C(=O)NO (racemic) [Rac-97, 6,7-dichloro-N-hydroxy-1-methyl-1,3,4,5-tetrahydro-2H-pyrido[4,3-b]indole-2-carboxamide] | 821 |  | 
CONC(=O)N1CCc2[nH]c3c(Cl)c(Cl)ccc3c2C1C (racemic) [Rac-98, 6,7-dichloro-N-methoxy-1-methyl-1,3,4,5-tetrahydro-2H-pyrido[4,3-b]indole-2-carboxamide] | 1320 |  | 
COc1cnc(C(=O)N2CCc3[nH]c4c(Cl)c(Cl)cc(SC)c4c3C2C)nc1 (racemic) [Rac-101, (6,7-dichloro-1-methyl-9-(methylthio)-1,3,4,5-tetrahydro-2H-pyrido[4,3-b]indol-2-yl)(5-methoxypyrimidin-2-yl)methanone] | 409 |  | 
COc1cnc(C(=O)N2CCc3[nH]c4c(Cl)c(Cl)cc(C)c4c3C2C)nc1 (racemic) [Rac-103, (6,7-dichloro-1,9-dimethyl-1,3,4,5-tetrahydro-2H-pyrido[4,3-b]indol-2-yl)(5-methoxypyrimidin-2-yl)methanone] | 115 |  | 
COc1cnc(C(=O)N2CCc3[nH]c4c(Cl)c(Cl)cc(OC)c4c3C2C)nc1 (racemic) [Rac-132, (6,7-dichloro-9-methoxy-1-methyl-1,3,4,5-tetrahydro-2H-pyrido[4,3-b]indol-2-yl)(5-methoxypyrimidin-2-yl)methanone] | 45.5 |  | 
C[C@@H]1c2c([nH]c3c(Cl)c(Cl)ccc23)CCN1C(=O)CN (single isomer, unassigned) [51A*] | > 10000 |  | > 5000
C[C@H]1c2c([nH]c3c(Cl)c(Cl)ccc23)CCN1C(=O)CN (single isomer, unassigned) [51B*] | 17.8 |  | < 100
COc1cnc(C(=O)N2CCn3nc4c(Cl)c(Cl)ccc4c3[C@H]2C)nc1 (single isomer, unassigned) [52A*] | > 10000 |  | > 5000
COc1cnc(C(=O)N2CCn3nc4c(Cl)c(Cl)ccc4c3[C@@H]2C)nc1 (single isomer, unassigned) [52B*] | 71.5 |  | < 100
C[C@@H]1c2c3c(-c4ccn(C)n4)cc(Cl)c(Cl)c3nn2CCN1C(=O)CO (single isomer, unassigned) [61A*] | > 10000 |  | > 5000
C[C@H]1c2c3c(-c4ccn(C)n4)cc(Cl)c(Cl)c3nn2CCN1C(=O)CO (single isomer, unassigned) [61B*] | 59.9 |  | < 100
C[C@H]1c2c([nH]c3c(Cl)c(Cl)ccc23)CCN1C(=O)c1ncc(C#N)[nH]1 (single isomer, unassigned) [95B*] | 587 |  | 
O=C(c1ncc[nH]1)N1CCc2[nH]c3c(Cl)c(Cl)ccc3c2C1 [Compound 5, (6,7-dichloro-1,3,4,5-tetrahydro-2H-pyrido[4,3-b]indol-2-yl)(1H-imidazol-2-yl)methanone] | 878 | 500 to 1000 | 500 to 1000
O=C(c1nnn[nH]1)N1CCc2[nH]c3c(Cl)c(Cl)ccc3c2C1 [Compound 7, (6,7-dichloro-1,3,4,5-tetrahydro-2H-pyrido[4,3-b]indol-2-yl)(1H-tetrazol-5-yl)methanone] | 3300 | 1000 to 5000 | 1000 to 5000
Cn1cnc(C(=O)N2CCc3[nH]c4c(Cl)c(Cl)ccc4c3C2)n1 [Compound 9, (6,7-dichloro-1,3,4,5-tetrahydro-2H-pyrido[4,3-b]indol-2-yl)(1-methyl-1H-1,2,4-triazol-3-yl)methanone] | 1070 | 1000 to 5000 | 1000 to 5000
